According to ChEMBL document CHEMBL1201862, “PubChem BioAssay data set” (2004):
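Test compounds were applied to cells in 96-well plates for 48 hours at 5 doses. Abbreviation: GI50, concentration required for 50% inhibition of growth.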 The source made the active and inactive calls. Rule as the data show it: active = GI50 up to about 1.1 µM and inactive = higher.

Legend:
Assay in all cases: NCI tumour cell line growth inhibition, 48 h
[1] = tested on: OVCAR-8
[2] = tested on: SNB-75
[3] = tested on: DMS-273
[4] = tested on: NCI/ADR-RES
[5] = tested on: SK-MEL-28
[6] = tested on: RXF 393
[7] = tested on: OVCAR-4
[8] = tested on: HOP-62
[9] = tested on: RPMI-8226
[10] = tested on: HOP-18
[11] = tested on: UO-31
[12] = tested on: UACC-62
[13] = tested on: K562
[14] = tested on: SK-MEL-5
[15] = tested on: SR
[16] = tested on: OVCAR-5
[17] = tested on: U-251
[18] = tested on: HCT-116
[19] = tested on: MDA-MB-435
[20] = tested on: CCRF-CEM
[21] = tested on: MOLT-4
[22] = tested on: HOP-92
[23] = tested on: OVCAR-3
[24] = tested on: NCI-H522
[25] = tested on: HCC 2998
[26] = tested on: HCT-15
[27] = tested on: NCI-H226
[28] = tested on: M19-MEL
[29] = tested on: DLD-1
[30] = tested on: SK-MEL-2
[31] = tested on: A549
[32] = tested on: LXFL 529
[33] = tested on: T47D
[34] = tested on: UACC-257
[35] = tested on: KM12
[36] = tested on: EKVX
[37] = tested on: DMS-114
[38] = tested on: MCF7
[39] = tested on: TK-10
[40] = tested on: SNB-19
[41] = tested on: SNB-78
[42] = tested on: A498
[43] = tested on: HL-60
[44] = tested on: MDA-N
[45] = tested on: PC-3
[46] = tested on: SN12C
[47] = tested on: COLO 205
[48] = tested on: SF-268
[49] = tested on: BT-549
[50] = tested on: NCI-H23
[51] = tested on: SF-539
[52] = tested on: 786-0
[53] = tested on: IGROV-1
[54] = tested on: ACHN
[55] = tested on: SK-OV-3
[56] = tested on: KM-20L2
[57] = tested on: NCI-H460
[58] = tested on: XF498
[59] = tested on: DU-145
[60] = tested on: HT-29
[61] = tested on: LOX IMVI
[62] = tested on: Malme-3M
[63] = tested on: MDA-MB-231
[64] = tested on: SF-295
[65] = tested on: M14
[66] = tested on: RXF 631

## CC1(C)OCN(c2ccc(Cl)cc2)Cn2c1nc1ccccc12
[1]
  GI50: 69 µM (inactive)
[2]
  GI50: > 100 µM (inactive)
[3]
  GI50: 1.68 µM (inactive)
[4]
  GI50: 27 µM (inactive)
[5]
  GI50: > 19.9 µM (inactive)
[6]
  GI50: 62.1 µM (inactive)
[7]
  GI50: 51.4 µM (inactive)
[8]
  GI50: > 27.3 µM (inactive)
[9]
  GI50: 19 µM (inactive)
[10]
  GI50: > 100 µM (inactive)
[11]
  GI50: 9.79 µM (inactive)
[12]
  GI50: 1.41 µM (inactive)
[13]
  GI50: 0.904 µM (active)
[14]
  GI50: 0.571 µM (active)
[15]
  GI50: 9.25 µM (inactive)
[16]
  GI50: > 100 µM (inactive)
[17]
  GI50: 22.3 µM (inactive)
[18]
  GI50: 15.3 µM (inactive)
[19]
  GI50: 0.611 µM (active)
[20]
  GI50: 11.4 µM (inactive)
[21]
  GI50: 11.6 µM (inactive)
[22]
  GI50: > 80.9 µM (inactive)
[23]
  GI50: > 51.9 µM (inactive)
[24]
  GI50: 12.6 µM (inactive)
[25]
  GI50: 3.56 µM (inactive)
[26]
  GI50: 0.431 µM
[27]
  GI50: > 100 µM (inactive)
[28]
  GI50: 71 µM (inactive)
[29]
  GI50: 7.6 µM (inactive)
[30]
  GI50: > 54 µM (inactive)
[31]
  GI50: 6.44 µM (inactive)
[32]
  GI50: 1.31 µM (inactive)
[33]
  GI50: > 100 µM (inactive)
[34]
  GI50: 39.1 µM (inactive)
[35]
  GI50: 1.61 µM (inactive)
[36]
  GI50: 63 µM (inactive)
[37]
  GI50: 21.2 µM (inactive)
[38]
  GI50: 58.9 µM (inactive)
[39]
  GI50: > 100 µM (inactive)
[40]
  GI50: > 71.3 µM (inactive)
[41]
  GI50: > 100 µM (inactive)
[42]
  GI50: 48.9 µM (inactive)
[43]
  GI50: 11.2 µM (inactive)
[44]
  GI50: 3.05 µM (inactive)
[45]
  GI50: 1.94 µM (inactive)
[46]
  GI50: 70.5 µM (inactive)
[47]
  GI50: 3.34 µM (inactive)
[48]
  GI50: 15.8 µM (inactive)
[49]
  GI50: > 100 µM (inactive)
[50]
  GI50: 18.1 µM (inactive)
[51]
  GI50: 6.5 µM (inactive)
[52]
  GI50: > 89.9 µM (inactive)
[53]
  GI50: 2.44 µM (inactive)
[54]
  GI50: 31.8 µM (inactive)
[55]
  GI50: > 100 µM (inactive)
[56]
  GI50: 1.82 µM (inactive)
[57]
  GI50: > 21.7 µM (inactive)
[58]
  GI50: 82.4 µM (inactive)
[59]
  GI50: 6.85 µM (inactive)
[60]
  GI50: > 100 µM (inactive)
[61]
  GI50: 3.21 µM (inactive)
[62]
  GI50: > 100 µM (inactive)
[63]
  GI50: 3.18 µM (inactive)

## COc1ccc(C2NC(c3ccc(OC)cc3)C(C)C(=O)C2C)cc1 (stereo not given)
[1]
  GI50: > 100 µM (inactive)
[2]
  GI50: 34 µM (inactive)
[3]
  GI50: > 100 µM (inactive)
[5]
  GI50: > 100 µM (inactive)
[6]
  GI50: > 100 µM (inactive)
[7]
  GI50: > 100 µM (inactive)
[8]
  GI50: > 100 µM (inactive)
[9]
  GI50: 34.2 µM (inactive)
[10]
  GI50: > 100 µM (inactive)
[11]
  GI50: 60 µM (inactive)
[12]
  GI50: > 100 µM (inactive)
[13]
  GI50: 42.7 µM (inactive)
[16]
  GI50: 23.4 µM (inactive)
[17]
  GI50: > 100 µM (inactive)
[18]
  GI50: 91.8 µM (inactive)
[20]
  GI50: > 100 µM (inactive)
[21]
  GI50: 46.7 µM (inactive)
[22]
  GI50: > 100 µM (inactive)
[64]
  GI50: > 100 µM (inactive)
[65]
  GI50: > 100 µM (inactive)
[23]
  GI50: > 100 µM (inactive)
[24]
  GI50: > 100 µM (inactive)
[25]
  GI50: > 100 µM (inactive)
[26]
  GI50: > 100 µM
[28]
  GI50: > 100 µM (inactive)
[29]
  GI50: > 100 µM (inactive)
[66]
  GI50: > 100 µM (inactive)
[30]
  GI50: > 100 µM (inactive)
[32]
  GI50: > 100 µM (inactive)
[34]
  GI50: > 100 µM (inactive)
[35]
  GI50: > 100 µM (inactive)
[36]
  GI50: 67 µM (inactive)
[37]
  GI50: 64.4 µM (inactive)
[39]
  GI50: > 100 µM (inactive)
[40]
  GI50: > 100 µM (inactive)
[41]
  GI50: > 100 µM (inactive)
[42]
  GI50: > 100 µM (inactive)
[43]
  GI50: > 100 µM (inactive)
[46]
  GI50: > 100 µM (inactive)
[47]
  GI50: > 100 µM (inactive)
[48]
  GI50: > 100 µM (inactive)
[50]
  GI50: > 100 µM (inactive)
[51]
  GI50: > 100 µM (inactive)
[52]
  GI50: > 100 µM (inactive)
[53]
  GI50: > 100 µM (inactive)
[54]
  GI50: > 100 µM (inactive)
[55]
  GI50: > 100 µM (inactive)
[56]
  GI50: > 100 µM (inactive)
[57]
  GI50: > 100 µM (inactive)
[60]
  GI50: > 100 µM (inactive)
[61]
  GI50: > 100 µM (inactive)
[62]
  GI50: > 100 µM (inactive)
